Measured values from patent US9226923B2, “Spirocyclic molecules as protein kinase inhibitors” (Nanjing Allgen Pharma Co. Ltd., priority 2011, dated 2016).

What was measured:
Human ALK = Human ALK (Homo sapiens (Human), UniProt Q9UM73); assay: ALK enzyme inhibition assay (Reaction Biology Corporation); type: biochemical; details: poly[Glu:Tyr] (4:1) 0.2 mg/ml, ATP 10 μM; read-out: Inhibitory Activities IC50, ALK
Description: (§1) The inhibitory activities of compounds of Formula I were assay at Reaction Biology Corporation, One Great Valley Parkway, Malvern, Pa., USA. Human ALK and cMet enzymes were used and the substrate was a peptide substrate, poly[Glu:Tyr] (4:1) at a concentration of 0.2 mg/ml.

Human cMet = Human cMet (Homo sapiens (Human), UniProt P08581); assay: cMet enzyme inhibition assay (Reaction Biology Corporation); type: biochemical; details: poly[Glu:Tyr] (4:1) 0.2 mg/ml, ATP 10 μM; read-out: Inhibitory Activities IC50, cMet
Description: as §1

Human ALK, sequence (Q9UM73 19-1620): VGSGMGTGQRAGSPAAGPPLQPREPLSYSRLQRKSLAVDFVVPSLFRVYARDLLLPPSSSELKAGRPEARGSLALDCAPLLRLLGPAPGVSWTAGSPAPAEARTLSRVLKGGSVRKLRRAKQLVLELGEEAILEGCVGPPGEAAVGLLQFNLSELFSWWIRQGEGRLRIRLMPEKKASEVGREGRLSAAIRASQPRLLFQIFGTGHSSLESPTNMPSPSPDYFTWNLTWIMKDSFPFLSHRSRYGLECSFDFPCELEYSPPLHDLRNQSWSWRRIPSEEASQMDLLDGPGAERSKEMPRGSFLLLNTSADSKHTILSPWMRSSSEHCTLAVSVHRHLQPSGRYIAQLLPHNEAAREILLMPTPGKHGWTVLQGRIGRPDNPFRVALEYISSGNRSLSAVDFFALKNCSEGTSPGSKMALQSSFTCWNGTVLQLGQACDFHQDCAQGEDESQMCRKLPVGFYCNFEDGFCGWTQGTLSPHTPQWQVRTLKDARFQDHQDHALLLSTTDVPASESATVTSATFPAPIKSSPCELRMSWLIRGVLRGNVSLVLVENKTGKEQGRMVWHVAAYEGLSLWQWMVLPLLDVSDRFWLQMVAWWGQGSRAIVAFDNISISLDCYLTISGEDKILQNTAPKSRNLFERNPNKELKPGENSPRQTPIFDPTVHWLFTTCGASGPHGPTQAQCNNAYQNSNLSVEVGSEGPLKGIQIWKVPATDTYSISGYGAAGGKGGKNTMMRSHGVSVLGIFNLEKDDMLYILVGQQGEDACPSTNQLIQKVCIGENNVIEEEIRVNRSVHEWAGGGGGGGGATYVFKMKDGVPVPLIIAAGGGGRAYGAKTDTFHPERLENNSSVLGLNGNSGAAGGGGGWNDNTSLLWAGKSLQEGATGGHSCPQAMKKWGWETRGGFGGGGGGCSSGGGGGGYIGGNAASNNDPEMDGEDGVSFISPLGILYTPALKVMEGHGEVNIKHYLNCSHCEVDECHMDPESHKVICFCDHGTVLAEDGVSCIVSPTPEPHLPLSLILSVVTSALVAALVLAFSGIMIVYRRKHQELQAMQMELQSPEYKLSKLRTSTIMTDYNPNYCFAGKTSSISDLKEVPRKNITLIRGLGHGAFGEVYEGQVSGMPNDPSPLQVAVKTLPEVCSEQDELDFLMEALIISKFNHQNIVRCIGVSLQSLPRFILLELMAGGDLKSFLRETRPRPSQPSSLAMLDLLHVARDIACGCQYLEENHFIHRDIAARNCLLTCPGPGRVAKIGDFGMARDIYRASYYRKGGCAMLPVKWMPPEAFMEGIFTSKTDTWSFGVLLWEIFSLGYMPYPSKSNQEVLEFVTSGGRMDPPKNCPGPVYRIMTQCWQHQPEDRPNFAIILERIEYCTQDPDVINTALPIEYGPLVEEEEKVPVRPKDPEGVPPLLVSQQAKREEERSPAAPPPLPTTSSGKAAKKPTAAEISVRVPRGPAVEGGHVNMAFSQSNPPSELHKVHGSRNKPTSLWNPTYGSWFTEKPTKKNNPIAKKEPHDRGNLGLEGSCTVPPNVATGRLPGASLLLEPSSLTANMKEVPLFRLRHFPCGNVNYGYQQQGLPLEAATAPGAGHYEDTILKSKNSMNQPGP
Human cMet, sequence (P08581 25-1390): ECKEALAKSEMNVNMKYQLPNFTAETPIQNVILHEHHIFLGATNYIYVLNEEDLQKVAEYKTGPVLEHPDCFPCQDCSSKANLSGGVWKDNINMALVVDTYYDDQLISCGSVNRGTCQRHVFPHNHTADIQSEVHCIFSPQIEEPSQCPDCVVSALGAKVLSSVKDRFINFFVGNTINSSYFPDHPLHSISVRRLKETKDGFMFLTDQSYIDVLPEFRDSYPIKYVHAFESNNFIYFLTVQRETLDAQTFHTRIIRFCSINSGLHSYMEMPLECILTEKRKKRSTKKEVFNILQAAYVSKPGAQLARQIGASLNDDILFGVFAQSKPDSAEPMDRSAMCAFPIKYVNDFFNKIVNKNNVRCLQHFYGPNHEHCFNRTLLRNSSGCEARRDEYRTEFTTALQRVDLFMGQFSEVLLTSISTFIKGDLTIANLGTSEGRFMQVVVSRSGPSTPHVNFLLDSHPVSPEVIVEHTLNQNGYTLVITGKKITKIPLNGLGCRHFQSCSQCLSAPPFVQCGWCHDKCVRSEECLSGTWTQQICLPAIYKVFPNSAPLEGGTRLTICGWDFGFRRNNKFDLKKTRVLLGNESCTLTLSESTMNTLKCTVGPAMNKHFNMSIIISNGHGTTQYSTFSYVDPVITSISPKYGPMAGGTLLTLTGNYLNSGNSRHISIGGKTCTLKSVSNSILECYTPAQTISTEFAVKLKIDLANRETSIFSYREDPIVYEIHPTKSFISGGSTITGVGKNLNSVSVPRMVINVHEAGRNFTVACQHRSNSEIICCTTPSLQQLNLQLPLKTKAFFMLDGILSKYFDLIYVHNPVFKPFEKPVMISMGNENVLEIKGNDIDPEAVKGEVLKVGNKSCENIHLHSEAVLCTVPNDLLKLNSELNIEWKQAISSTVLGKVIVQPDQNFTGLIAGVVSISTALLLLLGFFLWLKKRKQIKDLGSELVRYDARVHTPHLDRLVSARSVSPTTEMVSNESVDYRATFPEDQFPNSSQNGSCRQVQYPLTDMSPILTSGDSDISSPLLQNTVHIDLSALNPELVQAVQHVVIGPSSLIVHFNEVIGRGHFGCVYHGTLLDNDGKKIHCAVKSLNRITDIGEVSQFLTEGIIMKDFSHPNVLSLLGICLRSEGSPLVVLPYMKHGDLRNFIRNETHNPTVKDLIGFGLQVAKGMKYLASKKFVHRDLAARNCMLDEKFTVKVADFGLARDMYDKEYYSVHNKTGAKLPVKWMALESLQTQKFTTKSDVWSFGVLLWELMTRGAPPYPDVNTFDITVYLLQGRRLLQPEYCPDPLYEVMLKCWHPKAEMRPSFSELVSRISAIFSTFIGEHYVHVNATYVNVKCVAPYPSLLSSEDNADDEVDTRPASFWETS

Row | IC50 (Human ALK) [nM] | IC50 (Human cMet) [nM] | SMILES
1 | 2.21 |  | C[C@@H](Oc1cc(-c2cnn(C3CC4(CNC4)C3)c2)cnc1N)c1c(Cl)ccc(F)c1Cl [Example 2, (R)-5-(1-(2-azaspiro[3.3]heptan-6-yl)-1H-pyrazol-4-yl)-3-(1-(2,6-dichloro-3-fluorophenyl)ethoxy)pyridin-2-amine]
2 |  | 8.9 | C[C@@H](Oc1cc(-c2cnn(C3CC4(CCNCC4)C3)c2)cnc1N)c1c(Cl)ccc(F)c1Cl [Example 3, (R)-5-(1-(7-azaspiro[3.5]nonan-2-yl)-1H-pyrazol-4-yl)-3-((R)-1-(2,6-dichloro-3-fluorophenyl)ethoxy)pyridin-2-amine]
3 | 1.92 | 2.09 | C[C@@H](Oc1cc(-c2cnn(C3CC4(CCCNC4)C3)c2)cnc1N)c1c(Cl)ccc(F)c1Cl (stereo partly drawn) [Example 5]
4 | 4.31 | 4.8 | C[C@@H](Oc1cc(-c2cnn(C3CCC4(CC3)CNC4)c2)cnc1N)c1c(Cl)ccc(F)c1Cl [Example 4, (R)-5-(1-(2-azaspiro[3.5]nonan-7-yl)-1H-pyrazol-4-yl)-3-((R)-1-(2,6-dichloro-3-fluorophenyl)ethoxy)pyridin-2-amine]
